The values that follow come from patent US12221448B2, “Selective PI3Kδ inhibitor and use thereof” (TARAPEUTICS SCIENCE INC., priority 2018, dated 2025).

One series has as its target T1, PIK3C2B (Homo sapiens, UniProt O00750).
T1 construct: purchased Invitrogen (US)
Description: In vitro enzyme activity (ADP-Glo) against PIK3C2B. The note with it: Table 3; ATP 50 μM, substrate PI 100 μM; read-out: IC50 PI3KC2B. It is filed as biochemical. On the procedure:
(§1) In vitro enzyme activity experiments were performed to determine the IC50 values of the compounds against PI3K family type I kinases (PI3Kα, PI3Kβ, PI3Kγ, PI3Kδ) and type II kinases (PIK3C2A, PIK3C2B). Protein kinases PI3Kα, PI3Kγ, PI3Kδ, PIK3C2A, and PIK3C2B were all purchased from Invitrogen (US); protein kinase PI3Kβ was purchased from sigma (US); the three substrates PIP2: PS, PI and PI: PS were purchased from Invitrogen (US). […]
(§2) 5 μL of kinase solution after reaction was placed in a 384-well plate (Corning, US), and 5 μL of ADP-Glo™ reagent (Promega, US) was added thereto and reacted at room temperature for 40 minutes to stop the kinase reaction and exhaust the remaining ATP; 10 μL of kinase detection reagent was added to convert ADP into ATP, and coupled luciferase/luciferin reaction was utilized to detect the newly synthesized ATP. Envision was utilized for readout and plotting, and Graphpad IC50 value was calculated.

The target in the next series is T2, PI3Kβ (Homo sapiens, UniProt P42338).
T2 construct: purchased sigma (US)
T2 sequence (P42338 whole entry): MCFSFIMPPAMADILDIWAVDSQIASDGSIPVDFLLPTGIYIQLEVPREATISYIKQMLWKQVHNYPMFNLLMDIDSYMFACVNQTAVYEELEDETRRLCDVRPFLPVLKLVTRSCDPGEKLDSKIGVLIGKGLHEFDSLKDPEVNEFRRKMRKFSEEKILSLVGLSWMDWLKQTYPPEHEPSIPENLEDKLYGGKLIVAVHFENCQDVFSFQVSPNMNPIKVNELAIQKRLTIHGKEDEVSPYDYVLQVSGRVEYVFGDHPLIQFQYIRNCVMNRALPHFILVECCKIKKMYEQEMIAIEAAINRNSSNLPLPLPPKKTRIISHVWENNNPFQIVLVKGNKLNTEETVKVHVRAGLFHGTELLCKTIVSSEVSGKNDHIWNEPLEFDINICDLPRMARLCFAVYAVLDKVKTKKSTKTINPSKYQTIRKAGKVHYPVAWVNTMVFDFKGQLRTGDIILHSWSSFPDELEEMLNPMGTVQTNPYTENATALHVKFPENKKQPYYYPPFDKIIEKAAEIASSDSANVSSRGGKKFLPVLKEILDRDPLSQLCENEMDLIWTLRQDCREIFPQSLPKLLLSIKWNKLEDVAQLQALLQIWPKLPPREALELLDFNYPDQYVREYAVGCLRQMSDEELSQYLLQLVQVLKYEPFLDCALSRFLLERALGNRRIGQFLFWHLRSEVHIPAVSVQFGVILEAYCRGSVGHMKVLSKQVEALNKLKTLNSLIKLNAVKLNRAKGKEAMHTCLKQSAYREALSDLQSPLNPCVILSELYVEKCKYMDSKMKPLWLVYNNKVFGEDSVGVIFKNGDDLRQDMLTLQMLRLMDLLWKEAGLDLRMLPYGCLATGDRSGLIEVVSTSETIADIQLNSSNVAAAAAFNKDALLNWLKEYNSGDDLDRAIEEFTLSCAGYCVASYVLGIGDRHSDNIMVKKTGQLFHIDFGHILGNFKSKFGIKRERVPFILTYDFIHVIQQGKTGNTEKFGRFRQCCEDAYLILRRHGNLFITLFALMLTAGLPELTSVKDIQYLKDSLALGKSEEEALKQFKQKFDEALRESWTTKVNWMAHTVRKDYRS
T2 sequence (P27986 whole entry partner): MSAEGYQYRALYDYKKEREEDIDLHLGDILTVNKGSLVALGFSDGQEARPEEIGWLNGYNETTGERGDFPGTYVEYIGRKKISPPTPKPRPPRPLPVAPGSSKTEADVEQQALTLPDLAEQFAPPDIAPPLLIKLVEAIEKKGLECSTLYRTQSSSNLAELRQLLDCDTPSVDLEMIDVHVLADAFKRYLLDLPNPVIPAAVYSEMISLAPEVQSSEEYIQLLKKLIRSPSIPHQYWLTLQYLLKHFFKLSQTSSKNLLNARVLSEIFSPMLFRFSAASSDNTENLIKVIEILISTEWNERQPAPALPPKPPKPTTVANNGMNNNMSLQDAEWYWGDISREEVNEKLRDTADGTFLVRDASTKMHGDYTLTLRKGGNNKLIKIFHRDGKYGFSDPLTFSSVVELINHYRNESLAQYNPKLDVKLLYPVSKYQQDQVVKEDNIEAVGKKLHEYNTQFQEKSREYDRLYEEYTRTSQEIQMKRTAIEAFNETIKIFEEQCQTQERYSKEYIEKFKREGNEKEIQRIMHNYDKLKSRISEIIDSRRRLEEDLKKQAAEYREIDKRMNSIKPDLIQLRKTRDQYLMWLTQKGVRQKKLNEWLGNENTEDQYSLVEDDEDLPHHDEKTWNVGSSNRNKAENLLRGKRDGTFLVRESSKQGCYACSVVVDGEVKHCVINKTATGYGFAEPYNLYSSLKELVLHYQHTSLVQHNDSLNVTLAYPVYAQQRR
The series can be described thus: In vitro enzyme activity (ADP-Glo) against PI3Kβ. It is filed as biochemical. The note with it: Table 2; ATP 10 μM, PIP2:PS 50 μM; read-out: IC50 against PI3Kβ. On the procedure: (§3) In vitro enzyme activity experiments were performed to determine the IC50 values of the compounds against PI3K family type I kinases (PI3Kα, PI3Kβ, PI3Kγ, PI3Kδ) and type II kinases (PIK3C2A, PIK3C2B). Protein kinases PI3Kα, PI3Kγ, PI3Kδ, PIK3C2A, and PIK3C2B were all purchased from Invitrogen (US); protein kinase PI3Kβ was purchased from sigma (US); the three substrates PIP2: PS, PI and PI: PS were purchased from Invitrogen (US).
(§4) Protein kinases diluted to a certain concentration, i.e., PI3Kα 5.4 μL (with a final concentration of 0.16 ng/μL), PI3Kβ 5.4 μL (with a final concentration of 6 ng/μL), PI3Kδ 5.4 μL (with a final concentration of 1 ng/μL), PI3Kγ 5.4 μL (with a final concentration of 5 ng/μL), PIK3C2A 5.4 μL (with a final concentration of 5 ng/μL), and PIK3C2B 5.4 μL (with a final concentration of 10 ng/μL) were respectively reacted with 1 μL of the serially diluted drug compounds for 1 hour at room temperature (final drug concentrations were 10 μM, 1 μM, 0.3 μM, 0.1 μM, 0.03 μM, 0.01 μM, 0.003 μM, and 0.001 μM, respectively).
(§5) To each reaction tube of the above PI3K family type I kinases, 6 μL of a mixture of ATP (Promega, US) and substrate PIP2:PS (final concentrations of ATP in the reaction systems of kinases PI3Kα, and PI3Kβ were 10 μM, and final concentrations of ATP in the reaction systems of kinases PI3Kδ, and PI3Kγ were 50 μM, and final concentrations of the substrate PIP2:PS were all 50 μM) was added, and reacted at 37° C. for 1 hour. The reaction buffer was 50 mM Hepes (pH 7.5) (Promega, USA), 3 mM MgCl2, 1 mM EGTA (Promega, US), 100 mM NaCl, 0.03% CHAPS (Promega, US).
as §2

The subject of series [1] is rat model of adjuvant arthritis. Description: Efficacy in rat model of rheumatoid arthritis (adjuvant arthritis). It is filed as in vivo, Sprague-Dawley (SD) rats. The note with it: 25 mg/kg/day, oral gavage, once a day. On the procedure: In this example, the experimental results of Compound 9 were tested in a rat model of adjuvant arthritis.
(1) Sprague-Dawley (SD) rats, female, weighing 180 g±20 g, were purchased from Beijing Vital River Laboratory Animal Technology Co., Ltd. and maintained in an SPL laboratory. Drinking water and litter were sterilized by autoclaving, and all operations related to the rats were performed under sterile conditions.
(2) In the vehicle group and the treatment group, 10.0 mg/ml CFA (complete Freund's adjuvant, purchased from Sigma, US) was mixed thoroughly, and 0.1 ml of the CFA was injected intracutaneously into the right rear vola pedis of each rat on day 0 to induce inflammation; the normal group was injected with saline in the same way.
(3) Body weight and paw swelling were measured every 3 or 4 days after modeling. […]
(4) The body weight and paw swelling were measured every two days after administration, and the paw swelling was measured with a paw swelling meter. […] After the inflammation, the volume of left rear foot was measured to obtain the swelling degree of the secondary paw (Δm1=|paw volume after injection−paw volume before injection|).

The next series concerns the target T3, PI3Kγ (Homo sapiens, UniProt P48736).
T3 construct: purchased Invitrogen (US)
Description: In vitro enzyme activity (ADP-Glo) against PI3Kγ. It is filed as biochemical. The note with it: Table 2; ATP 50 μM, PIP2:PS 50 μM; read-out: IC50 against PI3Kγ. On the procedure:
as §3, §4, §5, §2
On the technique in general: In ADP-Glo the light output rises with the ADP produced.

A further series deals with T4, PI3Kδ (Homo sapiens, UniProt O00329).
T4 construct: purchased Invitrogen (US)
T4 sequence (O00329 whole entry): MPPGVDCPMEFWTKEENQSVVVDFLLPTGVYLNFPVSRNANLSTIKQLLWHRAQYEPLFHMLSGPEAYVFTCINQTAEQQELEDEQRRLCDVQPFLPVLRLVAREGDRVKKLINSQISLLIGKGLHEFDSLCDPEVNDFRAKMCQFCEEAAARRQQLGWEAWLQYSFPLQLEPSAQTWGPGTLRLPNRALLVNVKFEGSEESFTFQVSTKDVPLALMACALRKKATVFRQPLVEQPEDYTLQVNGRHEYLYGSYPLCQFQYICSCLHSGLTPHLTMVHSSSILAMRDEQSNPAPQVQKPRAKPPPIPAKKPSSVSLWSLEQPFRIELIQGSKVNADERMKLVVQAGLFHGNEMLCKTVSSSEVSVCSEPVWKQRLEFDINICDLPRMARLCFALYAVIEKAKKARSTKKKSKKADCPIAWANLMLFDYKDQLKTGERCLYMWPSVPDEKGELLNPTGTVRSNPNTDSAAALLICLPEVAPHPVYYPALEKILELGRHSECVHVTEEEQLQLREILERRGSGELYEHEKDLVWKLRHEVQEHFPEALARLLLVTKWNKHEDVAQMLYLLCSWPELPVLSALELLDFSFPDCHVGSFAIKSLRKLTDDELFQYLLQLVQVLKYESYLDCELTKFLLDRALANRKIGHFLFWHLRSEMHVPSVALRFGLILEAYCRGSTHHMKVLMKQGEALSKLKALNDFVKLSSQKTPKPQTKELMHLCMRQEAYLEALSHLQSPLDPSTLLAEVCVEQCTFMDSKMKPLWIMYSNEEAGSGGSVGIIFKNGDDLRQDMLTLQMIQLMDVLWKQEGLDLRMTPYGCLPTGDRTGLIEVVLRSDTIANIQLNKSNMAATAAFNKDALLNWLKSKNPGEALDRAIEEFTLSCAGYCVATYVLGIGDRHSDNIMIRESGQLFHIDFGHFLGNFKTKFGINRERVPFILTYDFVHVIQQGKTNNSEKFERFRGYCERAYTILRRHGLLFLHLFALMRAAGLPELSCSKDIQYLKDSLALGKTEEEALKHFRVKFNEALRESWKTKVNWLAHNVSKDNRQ
T4 sequence (P27986 whole entry partner): as the sequence (P27986 whole entry partner) above
The series can be described thus: In vitro enzyme activity (ADP-Glo) against PI3Kδ. It is filed as biochemical. The note with it: Table 2; ATP 50 μM, PIP2:PS 50 μM. On the procedure: as §3, §4, §5, §2

The target in the next series is T5, PIK3C2A (Homo sapiens, UniProt O00443).
T5 construct: purchased Invitrogen (US)
The series can be described thus: In vitro enzyme activity (ADP-Glo) against PIK3C2A. It is filed as biochemical. The note with it: Table 3; ATP 50 μM, substrate PI 100 μM; read-out: IC50 PI3KC2A. How it is done:
as §1, §2

The next series has as its target T6, PI3Kα (Homo sapiens, UniProt P42336).
T6 construct: purchased Invitrogen (US)
The series can be described thus: In vitro enzyme activity (ADP-Glo) against PI3Kα. It is filed as biochemical. The note with it: Table 2; ATP 10 μM, PIP2:PS 50 μM. How it is done:
as §3, §4, §5, §2

Structures are written as SMILES.

T6 sequence (P42336 whole entry): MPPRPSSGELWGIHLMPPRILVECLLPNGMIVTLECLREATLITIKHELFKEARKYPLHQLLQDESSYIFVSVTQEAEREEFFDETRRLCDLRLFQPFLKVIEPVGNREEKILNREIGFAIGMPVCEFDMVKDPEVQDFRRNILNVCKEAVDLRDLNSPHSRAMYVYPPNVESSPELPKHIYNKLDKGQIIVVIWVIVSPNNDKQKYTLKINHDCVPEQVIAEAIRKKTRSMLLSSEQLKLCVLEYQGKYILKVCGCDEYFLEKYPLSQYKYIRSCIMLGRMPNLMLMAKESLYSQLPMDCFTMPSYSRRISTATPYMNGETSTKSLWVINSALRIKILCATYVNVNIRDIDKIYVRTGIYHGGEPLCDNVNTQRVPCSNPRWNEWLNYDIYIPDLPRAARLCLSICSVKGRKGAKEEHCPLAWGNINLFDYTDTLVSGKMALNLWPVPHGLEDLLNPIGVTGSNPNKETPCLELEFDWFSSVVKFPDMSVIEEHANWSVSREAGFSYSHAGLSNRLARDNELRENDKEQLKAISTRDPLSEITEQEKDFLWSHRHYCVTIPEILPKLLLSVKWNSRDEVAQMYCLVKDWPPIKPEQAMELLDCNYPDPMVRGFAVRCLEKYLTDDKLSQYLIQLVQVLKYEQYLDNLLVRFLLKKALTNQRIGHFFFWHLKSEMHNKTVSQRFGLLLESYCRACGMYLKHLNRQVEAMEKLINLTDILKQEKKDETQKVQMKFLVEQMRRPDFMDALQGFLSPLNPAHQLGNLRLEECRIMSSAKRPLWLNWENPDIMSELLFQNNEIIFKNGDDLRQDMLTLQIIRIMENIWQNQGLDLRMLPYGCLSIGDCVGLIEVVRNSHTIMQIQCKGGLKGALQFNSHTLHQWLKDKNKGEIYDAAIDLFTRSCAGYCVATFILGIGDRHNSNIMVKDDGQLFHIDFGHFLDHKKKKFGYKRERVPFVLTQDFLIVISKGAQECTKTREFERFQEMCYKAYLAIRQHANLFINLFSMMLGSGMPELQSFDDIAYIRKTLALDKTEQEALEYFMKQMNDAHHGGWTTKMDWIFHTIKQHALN
T6 sequence (P27986 whole entry partner): as the sequence (P27986 whole entry partner) above
T3 sequence (P48736 whole entry): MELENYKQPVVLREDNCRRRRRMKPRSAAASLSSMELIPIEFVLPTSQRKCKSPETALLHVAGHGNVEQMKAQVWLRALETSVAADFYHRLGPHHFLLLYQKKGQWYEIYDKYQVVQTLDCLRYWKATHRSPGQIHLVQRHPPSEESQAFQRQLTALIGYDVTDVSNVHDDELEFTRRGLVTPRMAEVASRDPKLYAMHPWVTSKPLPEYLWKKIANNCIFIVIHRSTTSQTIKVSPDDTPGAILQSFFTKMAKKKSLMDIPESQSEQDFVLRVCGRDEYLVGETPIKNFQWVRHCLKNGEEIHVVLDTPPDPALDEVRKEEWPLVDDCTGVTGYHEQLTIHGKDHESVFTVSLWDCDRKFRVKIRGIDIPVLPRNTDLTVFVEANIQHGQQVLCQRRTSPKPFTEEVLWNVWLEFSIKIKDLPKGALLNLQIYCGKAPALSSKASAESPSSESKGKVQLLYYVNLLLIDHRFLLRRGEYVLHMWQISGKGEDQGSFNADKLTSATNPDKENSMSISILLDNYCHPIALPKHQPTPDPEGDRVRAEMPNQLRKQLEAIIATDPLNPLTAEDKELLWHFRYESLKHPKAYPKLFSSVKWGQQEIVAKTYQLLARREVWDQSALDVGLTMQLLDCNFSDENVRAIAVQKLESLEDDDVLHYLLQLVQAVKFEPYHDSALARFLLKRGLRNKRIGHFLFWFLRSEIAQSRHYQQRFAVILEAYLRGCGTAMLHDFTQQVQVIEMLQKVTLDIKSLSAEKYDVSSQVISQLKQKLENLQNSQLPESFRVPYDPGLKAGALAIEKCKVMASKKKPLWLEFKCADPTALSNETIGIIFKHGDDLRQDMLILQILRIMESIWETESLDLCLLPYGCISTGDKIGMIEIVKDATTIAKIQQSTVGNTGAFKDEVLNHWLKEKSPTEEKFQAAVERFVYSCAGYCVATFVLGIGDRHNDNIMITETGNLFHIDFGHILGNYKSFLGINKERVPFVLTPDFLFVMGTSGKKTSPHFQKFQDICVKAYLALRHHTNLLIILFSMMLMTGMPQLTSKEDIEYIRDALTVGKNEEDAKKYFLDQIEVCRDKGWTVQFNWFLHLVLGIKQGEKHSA

Usually IC50 stands for the concentration that gives 50% inhibition. For `CCC(c1nc2cccc(F)c2c(=O)n1C1CC1)n1nc(-c2ccc(OC)c(F)c2)c2c(N)ncnc21` (centres unmarked) [Compound 9, 2-(1-(4-amino-3-(3-fluoro-4-methoxyphenyl)-1H-pyrazolo [3,4-d]pyrimidin-1-yl)propyl)-3-cyclopropyl-5-fluoroquinazolin-4(3H)-one], the IC50 on PIK3C2B is 9960 nM; on PI3Kβ it was 1.16 µM; on PI3Kγ, 0.685 µM; against PI3Kδ, 0.0173 µM; at PIK3C2A, > 10000 nM; on PI3Kα, 3.35 µM. In series [1] (14 days, FIG. 1a), the “effect on the body weight of rats” value is reported as “no significant effect”. Also, the “paw swelling as compared with the vehicle group” value in series [1] (after 14 days of administration, FIG. 1b) is given as “significantly reduced”.
